# Source: patent publication US12071404B2, “Aza (indole)-, benzothiophene-, and benzofuran-3-sulfonamides” (UCB Pharma GmbH, priority 2016, dated 2024)
# Key:
# GPR17 [1] = molecular target: T1, GPR17 (Homo sapiens, UniProt Q13304); test: cAMP accumulation functional assay (HTRF, Schild analysis); type: cell-based; set-up: host or cells: Flp-In T-REx CHO; conditions: CHO hGPR17 cells, Schild analysis vs MDL29,951, 5 μM forskolin, read-out: cAMP assay pA2 (converted)
# Method in brief: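 Antagonist affinity (pA2) came from Schild plots of dose ratios, based on MDL29,951 concentration-response curves fitted by 4-parameter logistic. The read-out was HTRF cAMP in 5,000 doxycycline-induced CHO hGPR17 cells per well, with 30 min compound preincubation and 60 min stimulation, at room temperature in pH 7.4 buffer.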
# GPR17 [2] = molecular target: T1, GPR17; test: Calcium mobilization functional assay (GPR17 Ca2+ assay); type: cell-based; set-up: host or cells: Flp-In T-REx CHO; conditions: CHO hGPR17 cells, inhibition of 50 nM MDL29,951, Calcium 5 dye, FLIPR; read-out: Ca2+ assay pIC50 (converted)
# Method in brief: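 pIC50 values were fitted with a 4-parameter logistic curve. They reflect test-compound inhibition of cytosolic Ca2+ release evoked by 50 nM MDL29,951, tracked as Calcium 5 fluorescence at room temperature. Cells were CHO Flp-In T-REx stably carrying human GPR17, induced with doxycycline 1 μg/mL for 16-20 h.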
# T1 sequence (Q13304 whole entry): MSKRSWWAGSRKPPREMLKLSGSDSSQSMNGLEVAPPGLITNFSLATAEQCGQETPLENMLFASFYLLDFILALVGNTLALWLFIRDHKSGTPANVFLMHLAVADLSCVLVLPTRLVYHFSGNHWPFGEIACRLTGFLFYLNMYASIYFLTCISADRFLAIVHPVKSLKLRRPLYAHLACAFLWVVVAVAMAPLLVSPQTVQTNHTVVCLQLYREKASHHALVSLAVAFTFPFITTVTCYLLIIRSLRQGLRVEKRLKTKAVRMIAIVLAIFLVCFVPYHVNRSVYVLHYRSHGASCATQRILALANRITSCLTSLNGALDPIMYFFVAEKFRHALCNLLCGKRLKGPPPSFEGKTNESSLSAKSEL
Compound,Kb (GPR17 [1]),IC50 (GPR17 [2])
"O=S(=O)(Nc1cc(F)c(F)cc1F)c1c[nH]c2cc(Cl)ccc12 [Compound I-203, 6-chloro-N-(2,4,5-trifluorophenyl)-1H-indole-3-sulfonamide]",< 3.16 nM,3.16 to 31.6 nM
"O=C1NCc2cc(F)c(NS(=O)(=O)c3c[nH]c4cc(Cl)ccc34)cc21 [Compound I-265, 6-chloro-N-(6-fluoro-3-oxo-2,3-dihydro-1H-isoindol-5-yl)-1H-indole-3-sulfonamide]",> 31.6 nM,3.16 to 31.6 nM
"COc1nc(NS(=O)(=O)c2csc3cc(Cl)ccc23)c(F)cc1CC#N [Compound I-315, 6-chloro-N-[5-(cyanomethyl)-3-fluoro-6-methoxypyridin-2-yl]-1-benzothiophene-3-sulfonamide]",< 3.16 nM,< 3.16 nM
"COc1cc(Cl)c(F)cc1NS(=O)(=O)c1c[nH]c2c1ccc1ccccc12 [Compound I-175, N-(4-chloro-5-fluoro-2-methoxyphenyl)-1H-benzo[g]indole-3-sulfonamide]",3.16 to 31.6 nM,> 31.6 nM
"N#Cc1ccc(NS(=O)(=O)c2c[nH]c3c2ccc2ccccc23)cc1 [Compound I-159, N-(4-cyanophenyl)-1H-benzo[g]indole-3-sulfonamide]",3.16 to 31.6 nM,3.16 to 31.6 nM
"O=S(=O)(Nc1cccc2nsnc12)c1c[nH]c2c1ccc1cccnc12 [Compound I-73, N-(2,1,3-benzothiadiazol-4-yl)-1H-pyrrolo[3,2-h]quinoline-3-sulfonamide]",< 3.16 nM,3.16 to 31.6 nM
"C#Cc1ccc(NS(=O)(=O)c2c[nH]c3c2ccc2cccnc23)c(F)c1 [Compound I-306, N-(4-ethynyl-2-fluorophenyl)-1H-pyrrolo[3,2-h]quinoline-3-sulfonamide]",< 3.16 nM,3.16 to 31.6 nM
"COc1ccc2c(S(=O)(=O)Nc3cc(F)c(Br)cc3F)c[nH]c2n1 [Compound I-272, N-(4-bromo-2,5-difluorophenyl)-6-methoxy-1H-pyrrolo[2,3-b]pyridine-3-sulfonamide]",< 3.16 nM,3.16 to 31.6 nM
"Cc1noc(C)c1-c1c(Cl)ccc2c(S(=O)(=O)Nc3cc(F)c(Cl)cc3F)c[nH]c12 [Compound I-250, 6-chloro-N-(4-chloro-2,5-difluorophenyl)-7-(3,5-dimethyl-1,2-oxazol-4-yl)-1H-indole-3-sulfonamide]",3.16 to 31.6 nM,3.16 to 31.6 nM
"COc1cc(NS(=O)(=O)c2c[nH]c3cc(Cl)ccc23)ccc1C#N [Compound I-124, 6-chloro-N-(4-cyano-3-methoxyphenyl)-1H-indole-3-sulfonamide]",3.16 to 31.6 nM,3.16 to 31.6 nM
"N#Cc1ccc(NS(=O)(=O)c2c[nH]c3cc(OCC4CC4)ccc23)c(F)c1 [Compound I-220, N-(4-cyano-2-fluorophenyl)-6-(cyclopropylmethoxy)-1H-indole-3-sulfonamide]",3.16 to 31.6 nM,3.16 to 31.6 nM
"O=S(=O)(Nc1ccc2nsnc2c1)c1c[nH]c2nc(Cl)ccc12 [Compound I-179, N-(2,1,3-benzothiadiazol-5-yl)-6-chloro-1H-pyrrolo[2,3-b]pyridine-3-sulfonamide]",3.16 to 31.6 nM,< 3.16 nM
"O=S(=O)(Nc1ccc(OC(F)(F)F)cc1F)c1c[nH]c2cc(Cl)ccc12 [Compound I-276, 6-chloro-N-[2-fluoro-4-(trifluoromethoxy)phenyl]-1H-indole-3-sulfonamide]",3.16 to 31.6 nM,3.16 to 31.6 nM
"O=S(=O)(Nc1cccc2nsnc12)c1c[nH]c2ncc(I)cc12 [Compound I-98, N-(2,1,3-benzothiadiazol-4-yl)-5-iodo-1H-pyrrolo[2,3-b]pyridine-3-sulfonamide]",3.16 to 31.6 nM,3.16 to 31.6 nM
"O=S(=O)(Nc1nc(F)c(Cl)cc1F)c1c[nH]c2c1ccc1ccccc12 [Compound I-304, N-(5-chloro-3,6-difluoropyridin-2-yl)-1H-benzo[g]indole-3-sulfonamide]",< 3.16 nM,< 3.16 nM
"O=S(=O)(Nc1cccc2nsnc12)c1c[nH]c2nc(Br)ccc12 [Compound I-78, N-(2,1,3-benzothiadiazol-4-yl)-6-bromo-1H-pyrrolo[2,3-b]pyridine-3-sulfonamide]",3.16 to 31.6 nM,< 3.16 nM
"C=Cc1cc(F)c(NS(=O)(=O)c2c[nH]c3cc(Cl)ccc23)nc1F [Compound I-337, 6-chloro-N-(5-ethenyl-3,6-difluoropyridin-2-yl)-1H-indole-3-sulfonamide]",< 3.16 nM,3.16 to 31.6 nM
"CS(=O)(=O)c1ccc2c(S(=O)(=O)Nc3ccc(C#N)cc3)c[nH]c2c1 [Compound I-14, N-(4-cyanophenyl)-6-(methylsulfonyl)-1H-indole-3-sulfonamide]",3.16 to 31.6 nM,3.16 to 31.6 nM

Compound,Kb (GPR17 [1]),IC50 (GPR17 [2])
"O=S(=O)(Nc1cc(F)c(Cl)cc1F)c1c[nH]c2cc(OCC(F)(F)F)ccc12 [Compound I-300, N-(4-chloro-2,5-difluorophenyl)-6-(2,2,2-trifluoroethoxy)-1H-indole-3-sulfonamide]",3.16 to 31.6 nM,3.16 to 31.6 nM
"N#CCc1cc(F)c(NS(=O)(=O)c2c[nH]c3c2ccc2cccnc23)cc1F [Compound I-361, N-[4-(cyanomethyl)-2,5-difluorophenyl]-1H-pyrrolo[3,2-h]quinoline-3-sulfonamide]",< 3.16 nM,< 3.16 nM
"N#Cc1ccc2c(S(=O)(=O)Nc3cc(F)c(OC(F)F)cc3F)c[nH]c2c1 [Compound I-282, 6-cyano-N-[4-(difluoromethoxy)-2,5-difluorophenyl]-1H-indole-3-sulfonamide]",3.16 to 31.6 nM,3.16 to 31.6 nM
"N#Cc1ccc(NS(=O)(=O)c2c[nH]c3cc(-c4cccnc4)ccc23)c(F)c1 [Compound I-229, N-(4-cyano-2-fluorophenyl)-6-(pyridin-3-yl)-1H-indole-3-sulfonamide]",3.16 to 31.6 nM,3.16 to 31.6 nM
"O=S(=O)(Nc1cc(F)c(OCC(F)F)cc1F)c1c[nH]c2cc(Cl)ccc12 [Compound I-246, 6-chloro-N-[4-(2,2-difluoroethoxy)-2,5-difluorophenyl]-1H-indole-3-sulfonamide]",< 3.16 nM,< 3.16 nM
"COc1cc(C#N)c(F)cc1NS(=O)(=O)c1c[nH]c2nc(Cl)ccc12 [Compound I-292, 6-chloro-N-(4-cyano-5-fluoro-2-methoxyphenyl)-1H-pyrrolo[2,3-b]pyridine-3-sulfonamide]",3.16 to 31.6 nM,3.16 to 31.6 nM
"O=S(=O)(Nc1ncc(C(F)(F)F)cc1F)c1c[nH]c2cc(Cl)ccc12 [Compound I-297, 6-chloro-N-[3-fluoro-5-(trifluoromethyl)pyridin-2-yl]-1H-indole-3-sulfonamide]",< 3.16 nM,3.16 to 31.6 nM
"COc1cc(NS(=O)(=O)c2c[nH]c3cc(Cl)ccc23)c(F)cc1C#N [Compound I-143, 6-chloro-N-(4-cyano-2-fluoro-5-methoxyphenyl)-1H-indole-3-sulfonamide]",< 3.16 nM,< 3.16 nM
"O=S(=O)(Nc1cc(F)c(Cl)cc1F)c1c[nH]c2c1ccc1cccnc12 [Compound I-118, N-(4-chloro-2,5-difluorophenyl)-1H-pyrrolo[3,2-h]quinoline-3-sulfonamide]",< 3.16 nM,< 3.16 nM
"O=C1OCc2cc(F)c(NS(=O)(=O)c3c[nH]c4cc(Cl)ccc34)cc21 [Compound I-243, 6-chloro-N-(6-fluoro-3-oxo-1,3-dihydro-2-benzofuran-5-yl)-1H-indole-3-sulfonamide]",3.16 to 31.6 nM,3.16 to 31.6 nM
"CC1OC(=O)c2cc(NS(=O)(=O)c3c[nH]c4cc(Cl)ccc34)c(F)cc21 (stereo not drawn) [Compound I-327, 6-chloro-N-(6-fluoro-1-methyl-3-oxo-1,3-dihydro-2-benzofuran-5-yl)-1H-indole-3-sulfonamide]",< 3.16 nM,< 3.16 nM
"O=S(=O)(Nc1cccc(F)c1Cl)c1c[nH]c2nc(Br)ccc12 [Compound I-83, 6-bromo-N-(2-chloro-3-fluoorphenyl)-1H-pyrrolo[2,3-b]pyridine-3-sulfonamide]",3.16 to 31.6 nM,3.16 to 31.6 nM
"COc1ccc2c(S(=O)(=O)Nc3cc(F)c(C#N)cc3F)c[nH]c2c1 [Compound I-291, N-(4-cyano-2,5-difluorophenyl)-6-methoxy-1H-indole-3-sulfonamide]",< 3.16 nM,< 3.16 nM
"N#Cc1ccc(NS(=O)(=O)c2c[nH]c3cc(OCC(F)(F)F)ccc23)c(F)c1 [Compound I-294, N-(4-cyano-2-fluorophenyl)-6-(2,2,2-trifluoroethoxy)-1H-indole-3-sulfonamide]",3.16 to 31.6 nM,3.16 to 31.6 nM
"CCOCCc1cc(F)c(NS(=O)(=O)c2c[nH]c3cc(Cl)ccc23)nc1F [Compound I-333, 6-chloro-N-[5-(2-ethoxyethyl)-3,6-difluoropyridin-2-yl]-1H-indole-3-sulfonamide]",< 3.16 nM,< 3.16 nM
"N#Cc1c(Cl)ccc2c(S(=O)(=O)Nc3cc(F)c(Cl)cc3F)c[nH]c12 [Compound I-256, 6-chloro-N-(4-chloro-2,5-difluorophenyl)-7-cyano-1H-indole-3-sulfonamide]",< 3.16 nM,< 3.16 nM
"CCOC(=O)CCc1cc(F)c(NS(=O)(=O)c2c[nH]c3cc(Cl)ccc23)nc1F [Compound I-331, ethyl 3-(6-{[(6-chloro-1H-indol-3-yl)sulfonyl]amino}-2,5-difluoropyridin-3-yl)propanoate]",< 3.16 nM,< 3.16 nM
"O=S(=O)(Nc1ccc(I)cn1)c1c[nH]c2cc(Cl)ccc12 [Compound I-280, 6-chloro-N-(5-iodopyridin-2-yl)-1H-indole-3-sulfonamide]",3.16 to 31.6 nM,3.16 to 31.6 nM
